The values below are quoted from earlier work in patent publication US20050250805A1, “Pharmaceutical ointment formulations” (Glenmark Pharmaceuticals Limited, priority 2004, published 2005).

One data set relates to human subjects. The conditions noted are these: 50 human subjects, total of 15 applications; according to the manufacturer's brochure.

As to `CN1CCCC1=O` [Pharmasolve, N-methyl-2-pyrrolidone], the “Primary dermal irritation / sensitization in repeated insult patch test” value in the data set on human subjects is listed as “neither a primary dermal irritant nor a sensitizer”. Moreover, the “PII (skin irritation; practically nonirritating to rabbit skin)” value with rabbit skin is reported as 0.5.
